The source of these data is ChEMBL document CHEMBL1212829, “Efficient synthesis of Hsp90 inhibitor dimers as potential antitumor agents” (Bioorg Med Chem, 2010).

Structures are written as SMILES.

The subject of assay [1] is SK-BR-3. The assay can be described thus: Cytotoxicity against human SKBR3 cells after 72 hrs by crystal violet assay. It is filed as functional, cell-based. The conditions noted are these: SK-BR-3, 72 h.
Assay [2] deals with Heat shock protein HSP 90-alpha (Homo sapiens, UniProt P07900). The assay is described as follows: Displacement of biotin-labeled geldanamycin from N-terminal His-tagged human recombinant HSP90alpha expressed in Escherichia coli.
Assay [3] deals with Heat shock protein HSP90 (Homo sapiens, UniProt P07900+P08238). The assay can be described thus: Inhibition of Hsp90 in human SKBR3 cells assessed as Her2 degradation after 24 hrs by Western blotting. It is filed as cell-based. The conditions noted are these: sk-br-3.

With `C#CCCCCn1c(Sc2cc3c(cc2Br)OCO3)nc2c(N)ncnc21`, the figures for the IC50 in assay [1], in assay [2] and in assay [3] were 1.4 µM, 1400 nM and 2.6 µM, respectively.

Take `Nc1ncnc2c1nc(Sc1cc3c(cc1Br)OCO3)n2CCCc1cn(CCOCCOCCOCCOCCOCCn2cc(CCCn3c(Sc4cc5c(cc4Br)OCO5)nc4c(N)ncnc43)nn2)nn1`: the IC50 (as a rule, the concentration that inhibits the measured activity by half) in assay [1] was 3.8 µM; in assay [2] it was 650 nM; in assay [3], 6.3 µM.

`Nc1ncnc2c1nc(Sc1cc3c(cc1Br)OCO3)n2CCCCc1cn(CCOCCOCCOCCOCCOCCn2cc(CCCCn3c(Sc4cc5c(cc4Br)OCO5)nc4c(N)ncnc43)nn2)nn1`: the values for the IC50 in assay [1], in assay [2] and in assay [3] were 3 µM, 5100 nM and 5.2 µM, respectively.

For `Nc1ncnc2c1nc(Sc1cc3c(cc1Br)OCO3)n2CCCc1cn(CCOCCOCCOCCOCCOCCOCCn2cc(CCCn3c(Sc4cc5c(cc4Br)OCO5)nc4c(N)ncnc43)nn2)nn1`, the figures for the concentration for half-maximal inhibition (IC50) in assay [1], in assay [2] and in assay [3] were 5.6 µM, 790 nM and 7.1 µM, respectively.

`Nc1ncnc2c1nc(Sc1cc3c(cc1Br)OCO3)n2CCCCc1cn(CCOCCOCCOCCOCCOCCOCCn2cc(CCCCn3c(Sc4cc5c(cc4Br)OCO5)nc4c(N)ncnc43)nn2)nn1`: the half-maximal inhibitory concentration (IC50) in assay [1] is 5 µM; in assay [2], 3400 nM; in assay [3] it was 4.7 µM.

Consider `Nc1ncnc2c1nc(Sc1cc3c(cc1Br)OCO3)n2CCCc1cn(CCOCCOCCOCCOCCOCCOCCOCCn2cc(CCCn3c(Sc4cc5c(cc4Br)OCO5)nc4c(N)ncnc43)nn2)nn1`, for which the 50% inhibitory concentration (IC50) in assay [1] turned out to be 4.8 µM; in assay [2] it was 1100 nM; in assay [3], 9.2 µM.

As to `Nc1ncnc2c1nc(Sc1cc3c(cc1Br)OCO3)n2CCCCc1cn(CCOCCOCCOCCOCCOCCOCCOCCn2cc(CCCCn3c(Sc4cc5c(cc4Br)OCO5)nc4c(N)ncnc43)nn2)nn1`, the IC50 in assay [1] worked out at 4.8 µM; in assay [2] it was 3100 nM; in assay [3] it was 4.2 µM.

`Nc1ncnc2c1nc(Sc1cc3c(cc1Br)OCO3)n2CCCc1cn(CCCO)nn1`: the half-inhibitory concentration (IC50) in assay [1] was 1.8 µM; in assay [2], 490 nM; in assay [3] it was 3.9 µM.

As for `Nc1ncnc2c1nc(Sc1cc3c(cc1Br)OCO3)n2CCCCc1cn(CCCO)nn1`, the IC50 in assay [1] stood at 1.4 µM; in assay [2] it was 510 nM; in assay [3], 2.9 µM.

As for `C#CCCCn1c(Sc2cc3c(cc2Br)OCO3)nc2c(N)ncnc21`, the IC50 stood at 0.33 µM in assay [1], 300 nM in assay [2] and 0.46 µM in assay [3].
